{
  "source": "patent US9867795B2",
  "about": "“Nitrated lipids and methods of making and using thereof” (The UAB Research Foundation, priority 2004, dated 2018)",
  "key": {"3T3-L1 adipocytes": {"test_system": "3T3-L1 adipocytes", "assay": "[^3H]-2-Deoxy-D-glucose uptake assay in differentiated 3T3-L1 adipocytes", "format": "cell-based", "settings": "GW9662 added 1 h before nitrated lipids or Rosiglitazone", "procedure": "[^3H]-2-Deoxy-D-glucose Uptake Assay in Differentiated 3T3-L1 Adipocyte. [^3H]-2-Deoxy-D-glucose uptake assay as previously described (19) 3T3-L1 preadipocytes were grown in 24-well tissue culture plates, 2-day postconfluent preadipocytes were treated by 10 μg/ml insulin (Sigma), 1 μM dexamethasone (Sigma), and 0.5 mM 3-isobutyl-1-methylxanthine (Sigma) in DMEM containing 10% FBS for two days, then cells were kept in 10 μg/ml insulin also in DMEM containing 10% FBS for 6 days (changed medium every three days). Eight days after induction of adipogenesis, test compounds in DMEM containing 10% FBS were added for an additional 2 days (changed medium every day) and PPARγ-specific antagonist GW9662 were pretreated 1 h before other additions. After two rinses with serum-free DMEM, cells were incubated for 3 h in serum-free DMEM and rinsed at room temperature three times with freshly prepared KRPH buffer (5 mM phosphate buffer, 20 mM HEPES, 1 mM MgSO4, 1 mM CaCl2, 136 mM NaCl, 4.7 mM KCl, pH 7.4). The buffer was replaced with 1 μCi/ml of [^3H]-2-deoxy-D-glucose in KRPH buffer for 10 min at room temperature. The treated cells were rinsed carefully three times with cold PBS, lysed overnight in 0.8N NaOH (0.4 ml/well), and neutralized with […] of 12N HCl. Lysate (360 μl) was added to 4 ml Scinti-Safe Plus TM 50% in a scintillation vial, and the vials were mixed and counted.\n[^3H]-2-Deoxy-D-glucose uptake assay in differentiated 3T3-L1 adipocytes. [^3H]-2-deoxy-D-glucose uptake was analyzed as previously (23). […] Cells were then rinsed three times with cold PBS, lysed overnight in 0.8 N NaOH (0.4 ml/well), neutralized with 26.6 μl of 12 N HCl and 360 μl of lysate was added into 4 ml Scinti-Safe Plus™ 50% for radioactivity determination by liquid scintillation counting."}, "hPPARγ": {"target": "T1, hPPARγ (Homo sapiens, UniProt P37231)", "T1 construct": "For assessing full-length PPAR receptors, CV-1 cells were transiently co-transfected; expressed in transfected cells; host or cells: CV-1 cells", "T1 sequence (P37231 1-505)": "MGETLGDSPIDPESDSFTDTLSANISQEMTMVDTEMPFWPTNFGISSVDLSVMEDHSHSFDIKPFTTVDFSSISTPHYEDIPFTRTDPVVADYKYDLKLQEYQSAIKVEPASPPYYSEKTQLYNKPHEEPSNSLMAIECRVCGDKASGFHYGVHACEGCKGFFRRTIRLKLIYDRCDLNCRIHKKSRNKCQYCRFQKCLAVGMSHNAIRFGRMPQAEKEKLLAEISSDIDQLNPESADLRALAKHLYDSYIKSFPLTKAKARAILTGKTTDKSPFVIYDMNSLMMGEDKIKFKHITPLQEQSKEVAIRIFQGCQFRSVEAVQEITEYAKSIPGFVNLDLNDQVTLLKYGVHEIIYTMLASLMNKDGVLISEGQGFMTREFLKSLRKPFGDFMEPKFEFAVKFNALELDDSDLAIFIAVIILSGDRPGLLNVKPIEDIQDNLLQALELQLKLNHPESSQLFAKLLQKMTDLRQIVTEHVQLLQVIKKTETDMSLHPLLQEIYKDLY", "assay": "CV-1 PPRE×3 TK-Luciferase transient transfection assay", "format": "cell-based", "settings": "GW9662 added 1 hr prior to nitrated fatty acid", "text": "Cell Transient Transfection Assay. […] Then, cells were transiently co-transfected with a plasmid containing the luciferase gene under regulation by four Gal4 DNA binding elements (UASG×4 TK-Luciferase, a gift from Dr. Ronald M. Evans), in concert with plasmids containing the ligand binding domain for the different nuclear receptors fused to the Gal4 DNA binding domain. For assessing full-length PPAR receptors, CV-1 cells were transiently co-transfected with a plasmid containing the luciferase gene under the control of three tandem PPAR response elements (PPRE) (PPRE×3 TK-Luciferase) and hPPARγ, hPPARα or hPPARδ expression plasmids, respectively. In all cases, fluorescence protein (GFP) expression plasmid was co-transfected as the control for the transfection efficiency. Twenty-four hours after the transfection, cells were cultured for another 24 hours in Optium-MEM (Invitrogen, Carlsbad, Calif.). Then, cells were treated with different compounds as indicated in figures for 24 hours in Optium-MEM. Reporter luciferase assay kits from Promega (Madison, Wis.) were used to measure the luciferase activity according to the manufacturer's instructions with a luminometer (Victor II, Perkin-Elmer). Luciferase activity was normalized by GFP units. Each condition was performed at least in triplicates in each experiment.\nPPAR transient transfection assay. […] Twelve hours before transfection, the media was removed and antibiotic-free media was applied. Cells were transiently co-transfected with a plasmid containing the luciferase gene under the control of three tandem PPAR response elements (PPRE) (PPRE×3 TK-Luciferase) and PPARγ, PPARα or PPARδ expression plasmids, respectively. In all cases, fluorescence protein (GFP) expression plasmid was co-transfected as the control for transfection efficiency. Twenty-four hours after transfection, cells the returned to OptiMEM (Invitrogen, Carlsbad, Calif.) for 24 hr and then treated as indicated for another 24 hr. Reporter luciferase assay kits from Promega (Madison, Wis.) were used to measure the luciferase activity according to the manufacturer's instructions with a luminometer (Victor II, Perkin-Elmer). Luciferase activity was normalized by GFP units. Each condition was performed in triplicate in each experiment (n>3)."}, "[1]": {"test_system": "mouse RAW264.7 macrophages", "assay": "CD36 expression in macrophages (immunoblot, real-time PCR)", "settings": "GW9662 added 1 h prior to treatment"}},
  "note": "Entries after “also recorded” stand apart in the source; their conditions may differ.",
  "data": [
    {"molecule": "O=C(Nc1ccccc1)c1cc([N+](=O)[O-])ccc1Cl", "note": "[GW9662, reference compound]", "values": [
      {"measurement": "effect of GW9662 on induced glucose uptake", "setting": "3T3-L1 adipocytes", "result": "partially inhibited; also recorded: significantly inhibited"},
      {"measurement": "effect of GW9662 on nitrated fatty acid-mediated PPARγ activation", "setting": "hPPARγ", "result": "inhibited in a dose-dependent manner; also recorded: partially inhibited; also recorded: partially yet significantly blocked"},
      {"measurement": "effect of GW9662 on LNO2-induced CD36 expression", "setting": "[1]", "result": "partially inhibitable"}
    ]}
  ]
}
